Inconclusive results and toxic doses are left out.
Tested on: L1210 leukemia ip in BDF1 mice, survival T/C
Experiment: NCI In Vivo Anticancer Drug Screen. Data for tumor model L1210 Leukemia (intraperitoneal) in B6D2F1 (BDF1) mice
Conditions: endpoint: mean survival time, higher = longer survival
How it was run: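 In this screen, tumor-bearing mice given compound are compared to those given vehicle, and their survival values are reported as a treated-to-control quotient.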

[1] = dose: 100.0 mg/kg/injection, schedule: Q01DX009 (ip), vehicle: Klucel (hydroxypropylcellulose) (HPC)
[2] = dose: 100.0 mg/kg/injection, schedule: Q04DX003 (ip), vehicle: Klucel (hydroxypropylcellulose) (HPC)
[3] = dose: 200.0 mg/kg/injection, schedule: Q01DX009 (ip), vehicle: Klucel (hydroxypropylcellulose) (HPC)
[4] = dose: 200.0 mg/kg/injection, schedule: Q04DX003 (ip), vehicle: Klucel (hydroxypropylcellulose) (HPC)
[5] = dose: 400.0 mg/kg/injection, schedule: Q01DX009 (ip), vehicle: Klucel (hydroxypropylcellulose) (HPC)
[6] = dose: 400.0 mg/kg/injection, schedule: Q04DX003 (ip), vehicle: Klucel (hydroxypropylcellulose) (HPC)
[7] = dose: 100.0 mg/kg/injection, schedule: Q01DX001 (ip), vehicle: saline with Tween-80
[8] = dose: 200.0 mg/kg/injection, schedule: Q01DX001 (ip), vehicle: saline with Tween-80

CCCCNC(=O)Nc1ccc(SC)cc1
T/C [1]: 103 % of control | T/C [2]: 94 % of control | T/C [3]: 95 % of control | T/C [4]: 93 % of control | T/C [5]: 88 % of control | T/C [6]: 94 % of control

CCOC(=O)C(C#N)C1CCCCC1 (stereo unspecified)
T/C (dose: 25.0 mg/kg/injection, schedule: Q01DX009 (ip), vehicle: Klucel (hydroxypropylcellulose) (HPC)): 109 % of control | T/C (dose: 50.0 mg/kg/injection, schedule: Q01DX009 (ip), vehicle: Klucel (hydroxypropylcellulose) (HPC)): 102 % of control | T/C [7]: 98 % of control | T/C [1]: 102 % of control | T/C [2]: 102 % of control | T/C [8]: 95 % of control | T/C [4]: 107 % of control | T/C [6]: 100 % of control

N#C/C(=C1C=C(Br)/C(=N\O)C=C\1Cl)c1ccc(Cl)cc1
T/C (dose: 100.0 mg/kg/injection, schedule: Q01DX009 (ip), vehicle: acetone): 95 % of control | T/C (dose: 100.0 mg/kg/injection, schedule: Q04DX003 (ip), vehicle: acetone): 100 % of control | T/C (dose: 200.0 mg/kg/injection, schedule: Q04DX003 (ip), vehicle: acetone): 100 % of control | T/C (dose: 400.0 mg/kg/injection, schedule: Q04DX003 (ip), vehicle: acetone): 94 % of control

CN(C)c1ccc(/C=C2\N=C(c3ccc([N+](=O)[O-])cc3)OC2=O)cc1
T/C [1]: 96 % of control | T/C [3]: 101 % of control | T/C [5]: 93 % of control

COC(=O)C1C2OC(C3OC32)C1C(=O)OC (stereo unspecified)
T/C (dose: 100.0 mg/kg/injection, schedule: Q01DX009 (ip), vehicle: saline): 103 % of control | T/C (dose: 200.0 mg/kg/injection, schedule: Q01DX009 (ip), vehicle: saline): 104 % of control | T/C (dose: 400.0 mg/kg/injection, schedule: Q01DX009 (ip), vehicle: saline): 95 % of control

CCCC(=O)CC(=O)C(F)(F)F.CCCC(=O)CC(=O)C(F)(F)F.CCCC(=O)CC(=O)C(F)(F)F.[Er]
T/C (dose: 100.0 mg/kg/injection, schedule: Q01DX009 (ip), vehicle: other): 104 % of control | T/C (dose: 100.0 mg/kg/injection, schedule: Q04DX003 (ip), vehicle: other): 110 % of control | T/C (dose: 200.0 mg/kg/injection, schedule: Q01DX009 (ip), vehicle: other): 106 % of control | T/C (dose: 200.0 mg/kg/injection, schedule: Q04DX003 (ip), vehicle: other): 107 % of control | T/C (dose: 400.0 mg/kg/injection, schedule: Q04DX003 (ip), vehicle: other): 108 % of control

CC(=O)OC(C[N+](=O)[O-])C(Cl)(Cl)Cl (stereo unspecified)
T/C (dose: 6.25 mg/kg/injection, schedule: Q01DX009 (ip), vehicle: saline sonified): 107 % of control | T/C (dose: 12.5 mg/kg/injection, schedule: Q01DX009 (ip), vehicle: saline sonified): 107 % of control | T/C (dose: 12.5 mg/kg/injection, schedule: Q04DX003 (ip), vehicle: Klucel (hydroxypropylcellulose) (HPC)): 97 % of control | T/C (dose: 25.0 mg/kg/injection, schedule: Q01DX009 (ip), vehicle: saline sonified): 106 % of control | T/C (dose: 25.0 mg/kg/injection, schedule: Q04DX003 (ip), vehicle: Klucel (hydroxypropylcellulose) (HPC)): 103 % of control

CC1CN=C(c2ccc(NC(=O)C3CCC(C(=O)Nc4ccc(C5=NCC(C)N5)cc4)CC3)cc2)N1 (stereo unspecified)
T/C (dose: 31.0 mg/kg/injection, schedule: Q01DX015 (ip), vehicle: methylcellulose (MC)): 159 % of control | T/C (dose: 62.0 mg/kg/injection, schedule: Q01DX015 (ip), vehicle: methylcellulose (MC)): 113 % of control

CCCNC(C)(C)C(SS)c1ccc(Cl)cc1 (stereo unspecified)
T/C (dose: 100.0 mg/kg/injection, schedule: Q01DX009 (ip), vehicle: saline sonified): 97 % of control | T/C (dose: 100.0 mg/kg/injection, schedule: Q04DX003 (ip), vehicle: saline sonified): 106 % of control | T/C (dose: 200.0 mg/kg/injection, schedule: Q01DX009 (ip), vehicle: saline sonified): 107 % of control | T/C (dose: 200.0 mg/kg/injection, schedule: Q04DX003 (ip), vehicle: saline sonified): 95 % of control | T/C (dose: 400.0 mg/kg/injection, schedule: Q01DX009 (ip), vehicle: saline sonified): 96 % of control | T/C (dose: 400.0 mg/kg/injection, schedule: Q04DX003 (ip), vehicle: saline sonified): 95 % of control

Nc1ccc(C(=O)O)cc1S(=O)(=O)O
T/C (dose: 100.0 mg/kg/injection, schedule: Q01DX001 (ip), vehicle: Klucel (hydroxypropylcellulose) (HPC)): 102 % of control

CSCC1OC(n2cnc3c(N)ncnc32)C(O)C1O (stereo unspecified)
T/C (dose: 50.0 mg/kg/injection, schedule: Q01DX001 (ip), vehicle: saline with Tween-80): 96 % of control | T/C [7]: 96 % of control | T/C [8]: 96 % of control
